# Laboratory results reported in paper PMC9655037, “Alternation of Organ-Specific Exposure in LPS-Induced Pneumonia Mice after the Inhalation of Tetrandrine Is Governed by Metabolizing Enzyme Suppression and Lysosomal Trapping” (International Journal of Molecular Sciences, 2022).
# Where “and” joins values, the source holds several entries; their conditions need not be identical. Identical values can stand only once.
# Assay: Tissue distribution of TET after a single i.t. administration in normal and LPS-treated mice
# Conditions: for Kp / AUC(0-inf) / Cmax / MRT / Tmax / half-life / AUC(0-t): BALB/c, mouse; for Kp: other: intratracheal (i.t.), Kp (AUC in tissue divided by AUC in blood); for Kp / AUC(0-inf) / Cmax / MRT / Tmax / half-life / AUC(0-t) / Kp (AUC in tissue divided by AUC in blood): 15 mg/kg, 15 mg/kg i.t.; for AUC(0-inf) / Cmax / MRT / Tmax / half-life / AUC(0-t): inhaled or intranasal
# Description: The different tissue distribution characteristics of TET in normal and pneumonia model mice via i.t. delivery were investigated. Thirty BALB/c mice were randomly divided into ten groups (n = 3 for each group). Five groups of mice were intratracheally injected with 15 mg/kg TET (dissolved in 22.5 mg/mL aspartic acid solution) as control groups, and the other five groups received i.t. administration of 15 mg/kg TET 6 h after i.t. injection of 50 μL LPS (5 mg/mL) as model groups. One control group and one model group were sacrificed simultaneously at the set time points of 2, 4, 8, 24, and 144 h after the administration of TET. After a cardiac puncture to obtain blood samples, tissue samples including heart, liver, spleen, lung, kidney, stomach, intestine, and brain were immediately harvested and all the tissues were thoroughly rinsed in ice physiological saline. All the tissue samples were weighed and stored with blood samples at −40 °C for LC-MS/MS analysis.
# Pharmacokinetic parameters including t1/2, AUC(0-t), AUC(0-∞), and MRT were calculated using WinNonlin 7.0 (Pharsight, CA) by the non-compartmental model. Initial plasma concentration post i.v. (C0-i.v.) was extrapolated from the first three points of the logarithmic plasma concentration. The area under the blood concentration–time curve from t = 0 to infinity (AUCinf) was estimated using the linear trapezoidal rule. Blood clearance (CL) was calculated as the i.v. dose divided by AUCinf. Apparent steady-state distribution volume (Vss) was determined by the clearance multiplied by mean residence time. The distribution volume in the elimination phase (Vz) was determined by the clearance divided by the first-order rate constant of the terminal elimination phase (λz). The tissue partition ratio (Kp) of each tissue was calculated as Equation (1). (1) Kp=AUC(0−∞,tissue)/AUC(0−∞,plasma)
smiles,measurement,setting,value
"COc1ccc2cc1Oc1ccc(cc1)C[C@H]1c3cc(c(OC)cc3CCN1C)Oc1c(OC)c(OC)cc3c1[C@H](C2)N(C)CC3 [TET, Tetrandrine]",Kp,"adipose / blood, LPS-treated mice, adipose",2.6
same,Kp,"adipose / blood, normal mice, adipose",2.4
same,AUC(0-inf),"adipose, LPS-treated mice",816 ± 429 µg·h/mL
same,AUC(0-inf),"adipose, normal mice",501 ± 88.3 µg·h/mL
same,Cmax,"adipose, LPS-treated mice",5920 ± 1410 ng/mL
same,Cmax,"adipose, normal mice",7380 ± 1790 ng/mL
same,MRT,"adipose, LPS-treated mice",102 ± 57.9 h
same,MRT,"adipose, normal mice",67.7 ± 37.1 h
same,Tmax,"adipose, LPS-treated mice",18.7 ± 9.24 h
same,Tmax,"adipose, normal mice",5.33 ± 2.31 h
same,half-life,"adipose, t1/2, LPS-treated mice",75.2 ± 35.2 h
same,half-life,"adipose, t1/2, normal mice",54 ± 21.5 h
same,AUC(0-inf),"blood, LPS-treated mice",326 ± 12.9 µg·h/mL
same,AUC(0-inf),"blood, normal mice",249 ± 16.4 µg·h/mL
same,Cmax,"blood, LPS-treated mice",1940 ± 225 ng/mL
same,Cmax,"blood, normal mice",2670 ± 50 ng/mL
same,MRT,"blood, LPS-treated mice",133 ± 26.1 h
same,MRT,"blood, normal mice",111 ± 23.1 h
same,Tmax,"blood, LPS-treated mice",24 h
same,Tmax,"blood, normal mice",3.33 ± 1.15 h
same,half-life,"blood, t1/2, LPS-treated mice",95.5 ± 17.6 h
same,half-life,"blood, t1/2, normal mice",83.2 ± 15.4 h
same,Kp,"blood, LPS-treated mice, blood",1
same,Kp,"blood, normal mice, blood",1
same,Kp,"brain / blood, LPS-treated mice, brain",0.6
same,Kp,"brain / blood, normal mice, brain",1
same,AUC(0-inf),"brain, LPS-treated mice",179 ± 38.4 µg·h/mL
same,AUC(0-inf),"brain, normal mice",190 ± 51.4 µg·h/mL
same,Cmax,"brain, LPS-treated mice",6430 ± 3790 ng/mL
same,Cmax,"brain, normal mice",10400 ± 9530 ng/mL
same,MRT,"brain, LPS-treated mice",112 ± 35.4 h
same,MRT,"brain, normal mice",56.8 ± 26.5 h
same,Tmax,"brain, LPS-treated mice",5.33 ± 2.31 h
same,Tmax,"brain, normal mice",2 h
same,half-life,"brain, t1/2, LPS-treated mice",92.6 ± 27.2 h
same,half-life,"brain, t1/2, normal mice",51.6 ± 17.2 h
same,Kp,"heart / blood, LPS-treated mice, heart",4.3
same,Kp,"heart / blood, normal mice, heart",5.1
same,AUC(0-t),"heart, LPS-treated mice",940 ± 381 µg·h/mL
same,AUC(0-t),"heart, normal mice",880 ± 22.2 µg·h/mL
same,AUC(0-inf),"heart, LPS-treated mice",4090 ± 3400 µg·h/mL
same,AUC(0-inf),"heart, normal mice",1410 ± 21.5 µg·h/mL
same,Cmax,"heart, LPS-treated mice",10800 ± 4010 ng/mL
same,Cmax,"heart, normal mice",14200 ± 3160 ng/mL
same,MRT,"heart, LPS-treated mice",643 ± 376 h
same,MRT,"heart, normal mice",137 ± 0.09 h
same,Tmax,"heart, LPS-treated mice",4 h
same,Tmax,"heart, normal mice",2.67 ± 1.15 h
same,half-life,"heart, t1/2, LPS-treated mice",449 ± 259 h
same,half-life,"heart, t1/2, normal mice",96.8 ± 6.46 h
same,AUC(0-t),"in vivo, LPS-treated mice, adipose",566 ± 163 µg·h/mL
same,AUC(0-t),"in vivo, LPS-treated mice, blood",219 ± 17.7 µg·h/mL
same,AUC(0-t),"in vivo, LPS-treated mice, brain",129 ± 46.2 µg·h/mL
same,AUC(0-t),"in vivo, LPS-treated mice, kidney",7940 ± 1170 µg·h/mL
same,AUC(0-t),"in vivo, LPS-treated mice, liver",5890 ± 178 µg·h/mL
same,AUC(0-t),"in vivo, LPS-treated mice, muscle",483 ± 89.5 µg·h/mL
same,AUC(0-t),"in vivo, LPS-treated mice, spleen",9420 ± 942 µg·h/mL
same,AUC(0-t),"in vivo, normal mice, adipose",421 ± 94.4 µg·h/mL
same,AUC(0-t),"in vivo, normal mice, blood",175 ± 12.3 µg·h/mL
same,AUC(0-t),"in vivo, normal mice, brain",168 ± 60.6 µg·h/mL
same,AUC(0-t),"in vivo, normal mice, intestine",1460 ± 134 µg·h/mL
same,AUC(0-t),"in vivo, normal mice, kidney",6510 ± 691 µg·h/mL
same,AUC(0-t),"in vivo, normal mice, liver",4860 ± 334 µg·h/mL
same,AUC(0-t),"in vivo, normal mice, lung",4310 ± 1000 µg·h/mL
same,AUC(0-t),"in vivo, normal mice, muscle",359 ± 79.8 µg·h/mL
same,AUC(0-t),"in vivo, normal mice, spleen",7940 ± 665 µg·h/mL
same,AUC(0-t),"in vivo, normal mice, stomach",929 ± 163 µg·h/mL
same,Kp,"intestine / blood, normal mice, intestine",8.3
same,AUC(0-t),"intestine, LPS-treated mice",2390 ± 196 µg·h/mL
same,AUC(0-inf),"intestine, LPS-treated mice",2590 ± 271 µg·h/mL
same,AUC(0-inf),"intestine, normal mice",1630 ± 130 µg·h/mL
same,Cmax,"intestine, LPS-treated mice",76500 ± 10900 ng/mL
same,Cmax,"intestine, normal mice",46700 ± 25900 ng/mL
same,MRT,"intestine, LPS-treated mice",42.4 ± 6.38 h
same,MRT,"intestine, normal mice",50.5 ± 2.31 h
same,Tmax,"intestine, LPS-treated mice",2 h
same,Tmax,"intestine, normal mice",4 h
same,half-life,"intestine, t1/2, LPS-treated mice",41.7 ± 4.93 h
same,half-life,"intestine, t1/2, normal mice",44.7 ± 1.94 h
same,Kp,"intestine, LPS-treated mice, intestine",11 ± 1.35
same,AUC(0-inf),"kidney, LPS-treated mice",11000 µg·h/mL
same,AUC(0-inf),"kidney, normal mice",8160 ± 422 µg·h/mL
same,Cmax,"kidney, LPS-treated mice",112000 ± 11500 ng/mL
same,Cmax,"kidney, normal mice",107000 ± 16600 ng/mL
same,MRT,"kidney, LPS-treated mice",101 ± 30 h
same,MRT,"kidney, normal mice",80.1 ± 16.6 h
same,Tmax,"kidney, LPS-treated mice",5.33 ± 2.31 h
same,Tmax,"kidney, normal mice",3.33 ± 1.15 h
same,half-life,"kidney, t1/2, LPS-treated mice",77.8 ± 18.1 h
same,half-life,"kidney, t1/2, normal mice",63.4 ± 8.09 h
same,Kp,"kidney, LPS-treated mice, kidney",36.2 ± 3.83
same,Kp,"kidney, normal mice, kidney",37.5 ± 5.7
same,AUC(0-inf),"liver, LPS-treated mice",7430 ± 632 µg·h/mL
same,AUC(0-inf),"liver, normal mice",5480 ± 237 µg·h/mL
same,Cmax,"liver, LPS-treated mice",76300 ± 7020 ng/mL
same,Cmax,"liver, normal mice",83300 ± 9290 ng/mL
same,MRT,"liver, LPS-treated mice",82.1 ± 15.6 h
same,MRT,"liver, normal mice",53.9 ± 8.29 h
same,Tmax,"liver, LPS-treated mice",3.33 ± 1.15 h
same,Tmax,"liver, normal mice",4 h
same,half-life,"liver, t1/2, LPS-treated mice",69.3 ± 14.8 h
same,half-life,"liver, t1/2, normal mice",47.5 ± 5.47 h
same,Kp,"liver, LPS-treated mice, liver",27 ± 1.72
same,Kp,"liver, normal mice, liver",28 ± 3.49
same,AUC(0-t),"lung, LPS-treated mice",10000 µg·h/mL
same,AUC(0-inf),"lung, normal mice",5300 ± 721 µg·h/mL
same,Cmax,"lung, LPS-treated mice",≥ 96200 ng/mL
same,Cmax,"lung, normal mice",60300 ± 3210 ng/mL
same,MRT,"lung, normal mice",78.3 ± 24.5 h
same,Tmax,"lung, LPS-treated mice",≥ 144 h
same,Tmax,"lung, normal mice",13.3 ± 9.24 h
same,half-life,"lung, t1/2, normal mice",65.1 ± 18.3 h
same,Kp,"lung, LPS-treated mice, lung",45.8 ± 6.49
same,Kp,"lung, normal mice, lung",24.7 ± 6.06
same,Kp,"muscle / blood, normal mice, muscle",2
same,AUC(0-inf),"muscle, LPS-treated mice",674 ± 240 µg·h/mL
same,AUC(0-inf),"muscle, normal mice",410 ± 80.1 µg·h/mL
same,Cmax,"muscle, LPS-treated mice",7510 ± 2110 ng/mL
same,Cmax,"muscle, normal mice",6120 ± 440 ng/mL
same,MRT,"muscle, LPS-treated mice",101 ± 44.4 h
same,MRT,"muscle, normal mice",57.7 ± 7.81 h
same,Tmax,"muscle, LPS-treated mice",6.67 ± 2.31 h
same,Tmax,"muscle, normal mice",4 ± 3.16 h
same,half-life,"muscle, t1/2, LPS-treated mice",78.8 ± 31.3 h
same,half-life,"muscle, t1/2, normal mice",49.2 ± 4.06 h
same,Kp,"muscle, LPS-treated mice, muscle",2.2 ± 0.31
same,AUC(0-inf),"spleen, LPS-treated mice",16000 µg·h/mL
same,AUC(0-inf),"spleen, normal mice",11300 µg·h/mL
same,Cmax,"spleen, LPS-treated mice",89700 ± 10700 ng/mL
same,Cmax,"spleen, normal mice",89700 ± 7090 ng/mL
same,MRT,"spleen, LPS-treated mice",157 ± 29.5 h
same,MRT,"spleen, normal mice",112 ± 34.7 h
same,Tmax,"spleen, LPS-treated mice",17.3 ± 11.5 h
same,Tmax,"spleen, normal mice",12 ± 10.6 h
same,half-life,"spleen, t1/2, LPS-treated mice",111 ± 18.3 h
same,half-life,"spleen, t1/2, normal mice",83.8 ± 22.7 h
same,Kp,"spleen, LPS-treated mice, spleen",43.3 ± 6.88
same,Kp,"spleen, normal mice, spleen",45.7 ± 6.62
same,Kp,"stomach / blood, LPS-treated mice, stomach",6.1
same,Kp,"stomach / blood, normal mice, stomach",5.3
same,AUC(0-t),"stomach, LPS-treated mice",1340 ± 192 µg·h/mL
same,AUC(0-inf),"stomach, LPS-treated mice",1640 ± 323 µg·h/mL
same,AUC(0-inf),"stomach, normal mice",1120 ± 207 µg·h/mL
same,Cmax,"stomach, LPS-treated mice",27200 ± 9320 ng/mL
same,Cmax,"stomach, normal mice",22300 ± 12400 ng/mL
same,MRT,"stomach, LPS-treated mice",73.3 ± 17.7 h
same,MRT,"stomach, normal mice",70 ± 14 h
same,Tmax,"stomach, LPS-treated mice",3.33 ± 1.15 h
same,Tmax,"stomach, normal mice",4.67 ± 3.06 h
same,half-life,"stomach, t1/2, LPS-treated mice",61.4 ± 13 h
same,half-life,"stomach, t1/2, normal mice",64 ± 16.5 h
same,Kp (AUC in tissue divided by AUC in blood),"LPS-treated mice, adipose",2.57 ± 0.62
same,Kp (AUC in tissue divided by AUC in blood),"LPS-treated mice, brain",0.59 ± 0.17
same,Kp (AUC in tissue divided by AUC in blood),"LPS-treated mice, heart",4.27 ± 1.59
same,Kp (AUC in tissue divided by AUC in blood),"LPS-treated mice, stomach",6.13 ± 0.87
same,"lung AUC ratio, acutely inflamed vs normal mice",TET inhalation (i.t.) administration,2.32
same,"increase in systemic blood exposure (blood AUC ratio), LPS group vs normal/saline group",i.t. route,~ 1.25 fold and 1.25 fold
same,Kp (AUC in tissue divided by AUC in blood),"normal mice, adipose",2.39 ± 0.40
same,Kp (AUC in tissue divided by AUC in blood),"normal mice, brain",0.97 ± 0.39
same,Kp (AUC in tissue divided by AUC in blood),"normal mice, heart",5.05 ± 0.38
same,Kp (AUC in tissue divided by AUC in blood),"normal mice, intestine",8.35 ± 0.67
same,Kp (AUC in tissue divided by AUC in blood),"normal mice, muscle",2.04 ± 0.38
same,Kp (AUC in tissue divided by AUC in blood),"normal mice, stomach",5.29 ± 0.66
